tested on: P. falciparum (NF54 or 3D7 strain); assay: Assay for P. falciparum proliferation in infected human blood cells (SYBR Green); assay type: cell-based, Plasmodium falciparum; conditions: Plasmodium falciparum, Erythrocyte, 72 h, NF54 or 3D7 infected human erythrocytes, 72 hours; read-out: EC50 (nM), inhibitory efficacy in delaying P. falciparum proliferation in infected human blood cells
Procedure, shortened: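 NF54 or 3D7 parasites in O+ human erythrocytes at 2.5% hematocrit and 0.3% parasitemia final, exposed to compounds 72 h at 37 °C under 93% N2/4% CO2/3% O2.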

Structure (SMILES) | EC50
CN(C(=O)c1cn2c(-c3cccc(C(F)(F)F)c3)cnc2cn1)c1ccc(C#N)cc1 [Compound 175, N-(4-cyanophenyl)-N-methyl-3-[3-(trifluoromethyl)phenyl]imidazo[1,2-a]pyrazine-6-carboxamide] | 3280 nM
CN(C(=O)c1cn2c(-c3ccc(C(F)(F)F)cc3)cnc2cn1)c1ccc(Oc2ccccc2)cc1 [Compound 43, N-methyl-N-(4-phenoxyphenyl)-3-[4-(trifluoromethyl)phenyl]imidazo[1,2-a]pyrazine-6-carboxamide] | > 10000 nM
CN(C(=O)c1cn2c(-c3ccc(C#N)cc3)c(C(F)(F)F)nc2cn1)c1ccc(C#N)cc1 [Compound 341, N,3-bis(4-cyanophenyl)-N-methyl-2-(trifluoromethyl)imidazo[1,2-a]pyrazine-6-carboxamide] | 5790 nM
CN(C(=O)c1cn2c(-c3ccc4cn[nH]c4c3)cnc2cn1)c1ccc(C#N)cc1 [Compound 154, N-(4-cyanophenyl)-3-(1H-indazol-6-yl)-N-methylimidazo[1,2-a]pyrazine-6-carboxamide] | 2690 nM
CN(C(=O)c1cn2c(-c3ccc(C(F)(F)F)cc3)cnc2cn1)c1ccc(-n2cncn2)nc1 [Compound 365, N-methyl-N-[6-(1H-1,2,4-triazol-1-yl)pyridin-3-yl]-3-[4-(trifluoromethyl)phenyl]imidazo[1,2-a]pyrazine-6-carboxamide] | 6140 nM
COc1ccc(-c2cnc3cnc(C(=O)N(C)c4ccc(C#N)cc4)cn23)c(F)c1 [Compound 65, N-(4-cyanophenyl)-3-(2-fluoro-4-methoxyphenyl)-N-methylimidazo[1,2-a]pyrazine-6-carboxamide] | 354 nM
CN(C(=O)c1cn2c(-c3ccc(C(F)F)cc3)cnc2cn1)c1ccc(C#N)cn1 [Compound 95, N-(5-cyanopyridin-2-yl)-3-[4-(difluoromethyl)phenyl]-N-methylimidazo[1,2-a]pyrazine-6-carboxamide] | 1050 nM
CN(C(=O)c1cn2c(-c3ccc(C(F)(F)F)cc3)cnc2cn1)c1ccnc(C(F)(F)F)c1 [Compound 329, N-methyl-3-[4-(trifluoromethyl)phenyl]-N-[2-(trifluoromethyl)pyridin-4-yl]imidazo[1,2-a]pyrazine-6-carboxamide] | 2760 nM
COc1ncc(N(C)C(=O)c2cn3c(-c4ccc(C(F)(F)F)cc4)cnc3cn2)cn1 [Compound 399, N-(2-methoxypyrimidin-5-yl)-N-methyl-3-[4-(trifluoromethyl)phenyl]imidazo[1,2-a]pyrazine-6-carboxamide] | 6980 nM
COc1cccc(N(C)C(=O)c2cn3c(-c4ccc(C(F)(F)F)cc4)cnc3cn2)n1 [Compound 290, N-(6-methoxypyridin-2-yl)-N-methyl-3-[4-(trifluoromethyl)phenyl]imidazo[1,2-a]pyrazine-6-carboxamide] | 784 nM
CN(C(=O)c1cn2c(-c3ccc4[nH]ccc4c3)cnc2cn1)c1ccc(C#N)cc1 [Compound 428, N-(4-cyanophenyl)-3-(1H-indol-5-yl)-N-methylimidazo[1,2-a]pyrazine-6-carboxamide] | 276 nM
Cc1ccc(N(C)C(=O)c2cn3c(-c4ccc(OCCN)cc4)cnc3cn2)nc1 [Compound 409, 3-[4-(2-aminoethoxyl)phenyl]-N-methyl-N-(5-methylpyridin-2-yl)imidazo[1,2-a]pyrazine-6-carboxamide] | > 9340 nM
N#Cc1nc[nH]c1NC(=O)c1cn2c(-c3ccc(C(F)(F)F)cc3)cnc2cn1 [Compound 389, N-(4-cyano-1H-imidazol-5-yl)-3-[4-(trifluoromethyl)phenyl]imidazo[1,2-a]pyrazine-6-carboxamide] | 2000 nM
Cc1cc(C)n(-c2ccc(-c3cnc4cnc(C(=O)N(C)c5ccc(C#N)cc5)cn34)cc2)n1 [Compound 160, N-(4-cyanophenyl)-3-[4-(3,5-dimethyl-1H-pyrazol-1-yl)phenyl]-N-methylimidazo[1,2-a]pyrazine-6-carboxamide] | 1750 nM
CN(C(=O)c1cn2c(-c3ccc(N4CCCC4)cc3)cnc2cn1)c1ccc(C#N)cc1 [Compound 181, N-(4-cyanophenyl)-N-methyl-3-[4-(pyrrolidin-1-yl)phenyl]imidazo[1,2-a]pyrazine-6-carboxamide] | 723 nM
CN(C(=O)c1ccc(F)cc1)c1cn2c(-c3ccc(C(F)(F)F)cc3)cnc2cn1 [Compound 268, 4-fluoro-N-methyl-N-{3-[4-(trifluoromethyl)phenyl]imidazo[1,2-a]pyrazin-6-yl}benzamide] | 112 nM
CN(C(=O)c1cn2c(-c3ccc(NC(C)(C)CNC(=O)OC(C)(C)C)cc3)cnc2cn1)c1ccc(C#N)cc1 [Compound 300, tert-butyl N-{2-[(4-{6-[(4-cyanophenyl)(methyl)carbamoyl]imidazo[1,2-a]pyrazin-3-yl}phenyl)amino]-2-methylpropyl}carbamate] | 2990 nM
CC(C)c1nc(-c2cnc3cnc(C(=O)N(C)c4ccc(C#N)cc4)cn23)cs1 [Compound 156, N-(4-cyanophenyl)-N-methyl-3-[2-(propan-2-yl)-1,3-thiazol-4-yl]imidazo[1,2-a]pyrazine-6-carboxamide] | 391 nM

Structure (SMILES) | EC50
CN(C)c1ccc(-c2cnc3cnc(CN(C)c4ccc(F)cc4)cn23)cc1 [Compound 36, 4-(6-{[(4-fluorophenyl)(methyl)amino]methyl}imidazo[1,2-a]pyrazin-3-yl)-N,N-dimethylaniline] | 329 nM
COc1ccc(-c2cnc3cnc(C(=O)N(C)c4ccc(Cl)nc4)cn23)c(F)c1 [Compound 280, N-(6-chloropyridin-3-yl)-3-(2-fluoro-4-methoxyphenyl)-N-methylimidazo[1,2-a]pyrazine-6-carboxamide] | 707 nM
COc1ccc(-c2cnc3cnc(C(=O)N(C)c4ccc(Cl)nc4)cn23)cn1 [Compound 336, N-(6-chloropyridin-3-yl)-3-(6-methoxypyridin-3-yl)-N-methylimidazo[1,2-a]pyrazine-6-carboxamide] | 6930 nM
CN(C)c1ncc(-c2cnc3cnc(C(=O)N(C)c4ccc(C#N)cc4)cn23)cn1 [Compound 344, N-(4-cyanophenyl)-3-[2-(dimethylamino)pyrimidin-5-yl]-N-methylimidazo[1,2-a]pyrazine-6-carboxamide] | 2990 nM
CN(C(=O)c1cn2c(-c3ccc4ncccc4c3)cnc2cn1)c1ccc(C#N)cc1 [Compound 157, N-(4-cyanophenyl)-N-methyl-3-(quinolin-6-yl)imidazo[1,2-a]pyrazine-6-carboxamide] | 2010 nM
CN(C(=O)c1cn2c(-c3cccnc3)cnc2cn1)c1ccc(C#N)cc1 [Compound 195, N-(4-cyanophenyl)-N-methyl-3-(pyridin-3-yl)imidazo[1,2-a]pyrazine-6-carboxamide] | > 10000 nM
CN(C(=O)c1ccc(Cl)cc1)c1cn2c(-c3ccc(C(F)(F)F)cc3)cnc2cn1 [Compound 259, 4-chloro-N-methyl-N-{3-[4-(trifluoromethyl)phenyl]imidazo[1,2-a]pyrazin-6-yl}benzamide] | 414 nM
COc1ccncc1N(C)C(=O)c1cn2c(-c3ccc(C(F)(F)F)cc3)cnc2cn1 [Compound 303, N-(4-methoxypyridin-3-yl)-N-methyl-3-[4-(trifluoromethyl)phenyl]imidazo[1,2-a]pyrazine-6-carboxamide] | 1280 nM
CN(C(=O)c1cn2c(-c3ccc(C(N)=O)cc3)cnc2cn1)c1ccc(C#N)cc1 [Compound 104, 3-(4-carbamoylphenyl)-N-(4-cyanophenyl)-N-methylimidazo[1,2-a]pyrazine-6-carboxamide] | 57 nM
CN(C(=O)c1cn2c(-c3ccc(-c4ccn[nH]4)cc3)cnc2cn1)c1ccc(F)cc1 [Compound 257, N-(4-fluorophenyl)-N-methyl-3-[4-(1H-pyrazol-5-yl)phenyl]imidazo[1,2-a]pyrazine-6-carboxamide] | 92 nM
CN(Cc1cn2c(-c3ccc4c(cnn4C)c3)cnc2cn1)c1ccc(F)cc1 [Compound 8, 4-fluoro-N-methyl-N-((3-(1-methyl-1H-indazol-5-yl)imidazo[1,2-a]pyrazin-6-yl)methyl)aniline] | 21 nM
CN(C(=O)c1cn2c(-c3ccc4[nH]ncc4c3)cnc2cn1)c1ccc(C#N)cc1 [Compound 145, N-(4-cyanophenyl)-3-(1H-indazol-5-yl)-N-methylimidazo[1,2-a]pyrazine-6-carboxamide] | 648 nM
CN(C(=O)c1cn2c(-c3ccc(C(N)=O)cc3)cnc2cn1)c1ccc(F)c(F)c1 [Compound 22, 3-(4-carbamoylphenyl)-N-(3,4-difluorophenyl)-N-methylimidazo[1,2-a]pyrazine-6-carboxamide] | 74 nM
CN(C(=O)c1cn2c(-c3ccc(Cl)cc3)cnc2cn1)c1ccc(Cl)cc1Cl [Compound 70, 3-(4-chlorophenyl)-N-(2,4-dichlorophenyl)-N-methylimidazo[1,2-a]pyrazine-6-carboxamide] | 230 nM
CN(C(=O)c1cn2c(-c3ccc(C(F)(F)F)cc3)cnc2cn1)c1ccc(Cl)c(Cl)c1 [Compound 55, N-(3,4-dichlorophenyl)-N-methyl-3-[4-(trifluoromethyl)phenyl]imidazo[1,2-a]pyrazine-6-carboxamide] | 160 nM
CN(C)c1ccc(-c2cnc3cnc(C(=O)N(C)c4ccc(C#N)cc4)cn23)cc1 [Compound 77, N-(4-cyanophenyl)-3-[4-(dimethylamino)phenyl]-N-methylimidazo[1,2-a]pyrazine-6-carboxamide] | 116 nM
CN(C(=O)c1ccc(Cl)cn1)c1cn2c(-c3ccc(C(F)(F)F)cc3)cnc2cn1 [Compound 264, 5-chloro-N-methyl-N-{3-[4-(trifluoromethyl)phenyl]imidazo[1,2-a]pyrazin-6-yl}pyridine-2-carboxamide] | 277 nM
Fc1ccc2c(c1)CCCN2Cc1cn2c(-c3ccc(C(F)(F)F)cc3)cnc2cn1 [Compound 234, 6-fluoro-1-({3-[4-(trifluoromethyl)phenyl]imidazo[1,2-a]pyrazin-6-yl}methyl)-1,2,3,4-tetrahydroquinoline] | 148 nM

Reference: patent publication US20150291598A1 (NOVARTIS AG, priority 2012, published 2015)
